# From US7183267B2, “β-lactamase inhibitors and methods of use thereof” (priority 2003, dated 2007)
# System: methicillin resistant S. aureus ATCC 33591 (MRSA-ATCC)
# Test: Matrix system: oxacillin plus β-lactamase inhibitor, MRSA-ATCC
# Type: cell-based
# Details: for MIC of oxacillin: matrix study
# Description: To each well of a 96 well microtiter plate was added 47.5 μl of MHB. A volume of 2.5 μl of each dilution of oxacillin was then transferred to appropriate wells containing the medium. All wells, except the sterility control wells, were then inoculated with 50 μl of a diluted cell suspension to give a final volume of 100 μl and a final cell density of 5×10^4 CFU/well. The volume in the sterility control wells was adjusted to 100 μl with MHB. A sterile pipette tip was used to mix the contents of each well (one tip was used going from the low to the high concentration in the same column). The microtiter plates were covered with the lids and were placed in large Stratagene Big Blue plates (Cat. # 400041). Four large kimwipes moistened with tap water were placed near the edges of the Stratagene plates to prevent evaporation of the medium. The microtiter plates were incubated for at least 24 hours at 35° C. The plates were then evaluated for growth in each well. Controls included: medium sterility and negative control (medium and bacteria only).
# A numerical code was used to evaluate the extent of growth as indicated below. • 0: absence of growth • 1: barely visible (faint) growth • 2: fair growth but less than the negative solvent control • 3: growth is equivalent to the negative solvent control.
# The lowest dose at which no visible growth is observed was determined to be the MIC value.
# The effect of the four compounds of the present invention on oxacillin resistance of the MRSA strains was determined using a matrix system. The β-lactamase inhibitors were tested at 5 doses against up to eleven concentrations of oxacillin. […] A 96-well microtiter plate was used for the matrix system. The procedure was identical to that described above for the MIC determination, with the exception that both oxacillin and one each of the β-lactamase inhibitors was added, 2.5 μl each, to the wells prior to addition of the test organisms.
# Matrix Study:Oxacillin and Compound FL201 with MRSA-ATCC
# Matrix Study: Oxacillin and Compound Fl202 with MRSA-ATCC
structure (smiles),measurement,setting,value
O=C(OCc1ccccc1)c1cc(B(O)O)cc([N+](=O)[O-])c1 [Compound F1201],MIC of oxacillin,with compound 1 μg/ml,16 mg/L
same,MIC of oxacillin,with compound 2 μg/ml,2 mg/L
same,MIC of oxacillin,with compound 4 μg/ml,0.5 mg/L
same,MIC of oxacillin,with compound 8 μg/ml,<0.064 mg/L
same,extent of growth (numerical code),oxacillin 0 μg/ml + compound 1 μg/ml,3
same,extent of growth (numerical code),oxacillin 0 μg/ml + compound 2 μg/ml,3
same,extent of growth (numerical code),oxacillin 0 μg/ml + compound 4 μg/ml,2
same,extent of growth (numerical code),oxacillin 0 μg/ml + compound 8 μg/ml,1
same,extent of growth (numerical code),oxacillin 0 μg/ml + compound 16 μg/ml,0
same,extent of growth (numerical code),oxacillin 0.064 μg/ml + compound 1 μg/ml,1
same,extent of growth (numerical code),oxacillin 0.064 μg/ml + compound 2 μg/ml,1
same,extent of growth (numerical code),oxacillin 0.064 μg/ml + compound 4 μg/ml,1
same,extent of growth (numerical code),oxacillin 0.064 μg/ml + compound 8 μg/ml,0
same,extent of growth (numerical code),oxacillin 0.064 μg/ml + compound 16 μg/ml,0
same,extent of growth (numerical code),oxacillin 0.125 μg/ml + compound 1 μg/ml,1
same,extent of growth (numerical code),oxacillin 0.125 μg/ml + compound 2 μg/ml,1
same,extent of growth (numerical code),oxacillin 0.125 μg/ml + compound 4 μg/ml,1
same,extent of growth (numerical code),oxacillin 0.125 μg/ml + compound 8 μg/ml,0
same,extent of growth (numerical code),oxacillin 0.125 μg/ml + compound 16 μg/ml,0
same,extent of growth (numerical code),oxacillin 0.25 μg/ml + compound 1 μg/ml,1
same,extent of growth (numerical code),oxacillin 0.25 μg/ml + compound 2 μg/ml,1
same,extent of growth (numerical code),oxacillin 0.25 μg/ml + compound 4 μg/ml,1
same,extent of growth (numerical code),oxacillin 0.25 μg/ml + compound 8 μg/ml,0
same,extent of growth (numerical code),oxacillin 0.25 μg/ml + compound 16 μg/ml,0
same,extent of growth (numerical code),oxacillin 0.5 μg/ml + compound 1 μg/ml,1
same,extent of growth (numerical code),oxacillin 0.5 μg/ml + compound 2 μg/ml,1
same,extent of growth (numerical code),oxacillin 0.5 μg/ml + compound 4 μg/ml,0
same,extent of growth (numerical code),oxacillin 0.5 μg/ml + compound 8 μg/ml,0
same,extent of growth (numerical code),oxacillin 0.5 μg/ml + compound 16 μg/ml,0
same,extent of growth (numerical code),oxacillin 1 μg/ml + compound 1 μg/ml,1
same,extent of growth (numerical code),oxacillin 1 μg/ml + compound 2 μg/ml,1
same,extent of growth (numerical code),oxacillin 1 μg/ml + compound 4 μg/ml,0
same,extent of growth (numerical code),oxacillin 1 μg/ml + compound 8 μg/ml,0
same,extent of growth (numerical code),oxacillin 1 μg/ml + compound 16 μg/ml,0
same,extent of growth (numerical code),oxacillin 2 μg/ml + compound 1 μg/ml,1
same,extent of growth (numerical code),oxacillin 2 μg/ml + compound 2 μg/ml,0
same,extent of growth (numerical code),oxacillin 2 μg/ml + compound 4 μg/ml,0
same,extent of growth (numerical code),oxacillin 2 μg/ml + compound 8 μg/ml,0
same,extent of growth (numerical code),oxacillin 2 μg/ml + compound 16 μg/ml,0
same,extent of growth (numerical code),oxacillin 4 μg/ml + compound 1 μg/ml,1
same,extent of growth (numerical code),oxacillin 4 μg/ml + compound 2 μg/ml,0
same,extent of growth (numerical code),oxacillin 4 μg/ml + compound 4 μg/ml,0
same,extent of growth (numerical code),oxacillin 4 μg/ml + compound 8 μg/ml,0
same,extent of growth (numerical code),oxacillin 4 μg/ml + compound 16 μg/ml,0
same,extent of growth (numerical code),oxacillin 8 μg/ml + compound 1 μg/ml,1
same,extent of growth (numerical code),oxacillin 8 μg/ml + compound 2 μg/ml,0
same,extent of growth (numerical code),oxacillin 8 μg/ml + compound 4 μg/ml,0
same,extent of growth (numerical code),oxacillin 8 μg/ml + compound 8 μg/ml,0
same,extent of growth (numerical code),oxacillin 8 μg/ml + compound 16 μg/ml,0
same,extent of growth (numerical code),oxacillin 16 μg/ml + compound 1 μg/ml,0
same,extent of growth (numerical code),oxacillin 16 μg/ml + compound 2 μg/ml,0
same,extent of growth (numerical code),oxacillin 16 μg/ml + compound 4 μg/ml,0
same,extent of growth (numerical code),oxacillin 16 μg/ml + compound 8 μg/ml,0
same,extent of growth (numerical code),oxacillin 16 μg/ml + compound 16 μg/ml,0
same,extent of growth (numerical code),oxacillin 32 μg/ml + compound 1 μg/ml,0
same,extent of growth (numerical code),oxacillin 32 μg/ml + compound 2 μg/ml,0
same,extent of growth (numerical code),oxacillin 32 μg/ml + compound 4 μg/ml,0
same,extent of growth (numerical code),oxacillin 32 μg/ml + compound 8 μg/ml,0
same,extent of growth (numerical code),oxacillin 32 μg/ml + compound 16 μg/ml,0
same,extent of growth (numerical code),oxacillin 64 μg/ml + compound 1 μg/ml,0
same,extent of growth (numerical code),oxacillin 64 μg/ml + compound 2 μg/ml,0
same,extent of growth (numerical code),oxacillin 64 μg/ml + compound 4 μg/ml,0
same,extent of growth (numerical code),oxacillin 64 μg/ml + compound 8 μg/ml,0
same,extent of growth (numerical code),oxacillin 64 μg/ml + compound 16 μg/ml,0
